What was measured:
[1] = biological target: T1, novel mammalian opioid receptor (LC132, MSOR, OFQR) (Rattus norvegicus, UniProt P35370); experiment: biochemical; format: binding
T1 construct: The entire coding region of the receptor cDNA insert was subcloned into the RcRSV vector; expressed in transfected cells

mice [2] = experiment: Morphine hypothermia and Straub tail in DBA/2J mice
mice [3] = experiment: Reversal of morphine analgesia, 49° C. tail withdrawal latency; format: in vivo, mouse; details: morphine sulfate 5 mg/kg sc
mice [4] = tested on: mice; set-up: dose or concentration left out as unconfirmed
mice [5] = experiment: Acetic acid abdominal constriction (writhing) test; format: in vivo, mouse; details: NAL 1 mg/kg and 10 mg/kg sc
Procedure: The AC assay was a modification of the technique originally described by Koster et al. Mice (N=9-15 per group) were acclimated to individual cylindrical Plexiglass observation chambers for >30 minutes. […] A separate group of Sal-treated mice received no icv injection (None). Between 5 and 10 minutes later, all mice were given an intraperitoneal (ip) injection of 0.9% acetic acid and placed back in their observation chambers. For the next 30 minutes, the number of abdominal constrictions (lengthwise stretches of the torso with a concomitant concave arching of the back) were counted and recorded. Four mice in separate chambers were observed simultaneously by a single experimenter blind to drug condition.

T1 sequence (P35370 whole entry): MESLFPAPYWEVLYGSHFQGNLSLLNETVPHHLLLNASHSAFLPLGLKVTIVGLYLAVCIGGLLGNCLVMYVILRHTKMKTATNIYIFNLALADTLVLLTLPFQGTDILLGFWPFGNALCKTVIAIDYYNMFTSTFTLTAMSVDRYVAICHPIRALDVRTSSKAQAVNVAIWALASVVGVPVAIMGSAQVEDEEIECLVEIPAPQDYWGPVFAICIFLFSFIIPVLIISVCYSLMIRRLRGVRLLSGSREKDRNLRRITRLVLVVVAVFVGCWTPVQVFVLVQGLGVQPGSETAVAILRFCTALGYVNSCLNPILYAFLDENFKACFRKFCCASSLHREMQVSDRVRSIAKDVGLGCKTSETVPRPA

`C[C@@H](NC(=O)[C@@H](N)Cc1ccc(O)cc1)C(=O)NCC(=O)N(C)[C@@H](Cc1ccccc1)C(=O)NCCO` [DAMGO, Tyr-DAla-Gly-Met-Phe-Gly-ol] was tested, and the “specific binding of the radioactively-labeled ligand” value (“specific binding” below) [1] was “no specific binding”.
For `CC1(C)SSC(C)(C)[C@@H](NC(=O)[C@@H](N)Cc2ccc(O)cc2)C(=O)NCC(=O)N[C@@H](Cc2ccccc2)C(=O)N[C@H]1C(=O)O` [DPDPE, c[D-penicillamine^2, D-penicillamine^5]enkephalin], the “specific binding” value [1] was “no specific binding”.
For `CCC12CCN(CC3(O)CC3)C(Cc3ccc(O)cc31)C2(C)C` (stereo not shown) [bremacozine], the “specific binding” value [1] was “no specific binding”.
For `CN1CC[C@]23c4c5ccc(O)c4O[C@H]2[C@@H](O)CC[C@H]3[C@H]1C5` [dihydromorphine], the “specific binding” value [1] was “no specific binding”.
For `CC[C@]12CCN(CC3CC3)[C@H](C(=O)c3ccc(O)cc31)[C@@H]2C` [ethylketocyclazocine], the “specific binding” value [1] was “no specific binding”.
In the case of `CCC(=O)C(CC(C)N(C)C)(c1ccccc1)c1ccccc1` (stereo not shown) [methadone], the Bmax [1] is reported as 400-450 fentomoles/μg protein, the Kd [1] is reported as roughly 0.1 nM and the “specific binding” value [1] is reported as “specific binding was found”.
`CN1CC[C@]23c4c5ccc(O)c4O[C@H]2[C@@H](O)C=C[C@H]3[C@H]1C5` [morphine] was tested, and the “decrease in body temperature” value (mice [2]; MOR 20 mg/kg i.p., DBA/2J mice) was 6 °C, the Straub tail (mice [2]; morphine 20 mg/kg) was “produced Straub tail” and the duration of analgesia (mice [3]) was “about 2 hours”. For the same compound, the “time of peak analgesia” value (mice [3]; post-injection) was 30 min.
`C=CCN1CC[C@]23c4c5ccc(O)c4O[C@H]2C(=O)CC[C@@]3(O)[C@H]1C5` [naloxone] was tested, and the “hyperalgesia in TW test” value (mice [4]) was “In no case did any mouse treated with OFQ or naloxone exhibit hyperalgesia”, the “stress-induced analgesia: post-injection increase in TW latency” value (mice [4]; 46° C. water, p<0.05) was “attenuated the 4 s post-injection increase in TW latency” and the “decreased number of abdominal constrictions due to SIA” value (mice [5]) was “reversed”.
β-endorphin was tested, and the “specific binding” value [1] was “no specific binding”.

Reference: patent publication US5821219A (priority 1995, dated 1998)
